Tested on: NOMO1
Experiment: cell viability relative to DMSO control; higher = less cytotoxic
Conditions: 48 h
Procedure, shortened: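 NOMO1 or SEM cells were plated at 500 cells/well and P12-Ichikawa cells at 1000 cells/well in 1536-well plates (5 μl), after each leukemia line had been adapted for at least four passages in each medium. Pin dosing delivered library compounds in DMSO at 11 threefold concentrations, 47 μM to 0.79 nM. CellTiter-Glo One luminescence was read after 48 h at 37°C. Viability is reported as a per-plate percentage of DMSO wells, with cell-free wells as background.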

[1] = HPLM + 10% dialyzed FBS, 0.000781 µM
[2] = HPLM + 10% dialyzed FBS, 0.00234 µM
[3] = HPLM + 10% dialyzed FBS, 0.00702 µM
[4] = HPLM + 10% dialyzed FBS, 0.0211 µM
[5] = HPLM + 10% dialyzed FBS, 0.0632 µM
[6] = HPLM + 10% dialyzed FBS, 0.19 µM
[7] = HPLM + 10% dialyzed FBS, 0.569 µM
[8] = HPLM + 10% dialyzed FBS, 1.71 µM
[9] = HPLM + 10% dialyzed FBS, 5.12 µM
[10] = HPLM + 10% dialyzed FBS, 15.4 µM
[11] = HPLM + 10% dialyzed FBS, 46.1 µM
[12] = RPMI 5 mM glucose + 10% FBS, 0.000781 µM
[13] = RPMI 5 mM glucose + 10% FBS, 0.00234 µM
[14] = RPMI 5 mM glucose + 10% FBS, 0.00702 µM
[15] = RPMI 5 mM glucose + 10% FBS, 0.0211 µM
[16] = RPMI 5 mM glucose + 10% FBS, 0.0632 µM
[17] = RPMI 5 mM glucose + 10% FBS, 0.19 µM
[18] = RPMI 5 mM glucose + 10% FBS, 0.569 µM
[19] = RPMI 5 mM glucose + 10% FBS, 1.71 µM
[20] = RPMI 5 mM glucose + 10% FBS, 5.12 µM
[21] = RPMI 5 mM glucose + 10% FBS, 15.4 µM
[22] = RPMI 5 mM glucose + 10% FBS, 46.1 µM
[23] = RPMI 5 mM glucose + 10% dialyzed FBS, 0.000781 µM
[24] = RPMI 5 mM glucose + 10% dialyzed FBS, 0.00234 µM
[25] = RPMI 5 mM glucose + 10% dialyzed FBS, 0.00702 µM
[26] = RPMI 5 mM glucose + 10% dialyzed FBS, 0.0211 µM
[27] = RPMI 5 mM glucose + 10% dialyzed FBS, 0.0632 µM
[28] = RPMI 5 mM glucose + 10% dialyzed FBS, 0.19 µM
[29] = RPMI 5 mM glucose + 10% dialyzed FBS, 0.569 µM
[30] = RPMI 5 mM glucose + 10% dialyzed FBS, 1.71 µM
[31] = RPMI 5 mM glucose + 10% dialyzed FBS, 5.12 µM
[32] = RPMI 5 mM glucose + 10% dialyzed FBS, 15.4 µM
[33] = RPMI 5 mM glucose + 10% dialyzed FBS, 46.1 µM

Row | SMILES | cell viability [1] [%] | cell viability [2] [%] | cell viability [3] [%] | cell viability [4] [%] | cell viability [5] [%] | cell viability [6] [%] | cell viability [7] [%] | cell viability [8] [%] | cell viability [9] [%] | cell viability [10] [%] | cell viability [11] [%] | cell viability [12] [%] | cell viability [13] [%] | cell viability [14] [%] | cell viability [15] [%] | cell viability [16] [%] | cell viability [17] [%] | cell viability [18] [%] | cell viability [19] [%] | cell viability [20] [%] | cell viability [21] [%] | cell viability [22] [%] | cell viability [23] [%] | cell viability [24] [%] | cell viability [25] [%] | cell viability [26] [%] | cell viability [27] [%] | cell viability [28] [%] | cell viability [29] [%] | cell viability [30] [%] | cell viability [31] [%] | cell viability [32] [%] | cell viability [33] [%]
1 | CNCCN(C)Cc1c[nH]nc1-c1ccc(O[C@H]2C[C@H](OCCC3CCOCC3)C2)cc1 | 115 | 110 | 129 | 150 | 136 | 156 | 133 | 128 | 114 | 103 | 121 | 126 | 123 | 122 | 132 | 149 | 141 | 135 | 131 | 141 | 148 | 132 | 119 | 122 | 140 | 143 | 151 | 130 | 147 | 147 | 144 | 141 | 124
2 | CCC[S+](=O)([O-])Nc1ccc(F)c(C(=O)c2c[nH]c3ncc(-c4ccc(Cl)cc4)cc23)c1F | 124 | 112 | 113 | 116 | 143 | 132 | 108 | 99.7 | 108 | 116 | 93.2 | 101 | 113 | 112 | 103 | 117 | 113 | 106 | 120 | 112 | 111 | 98.9 | 113 | 116 | 112 | 129 | 109 | 112 | 121 | 107 | 108 | 112 | 94.5
3 | O=C1C(CCC(O)c2ccc(F)cc2)C(c2ccc(O)cc2)N1c1ccc(F)cc1 (stereo unspecified) | 111 | 104 | 123 | 124 | 113 | 132 | 133 | 132 | 146 | 132 | 47.5 | 114 | 114 | 108 | 106 | 110 | 120 | 112 | 122 | 122 | 130 | 127 | 101 | 98.9 | 107 | 113 | 92.7 | 118 | 111 | 103 | 117 | 106 | 103
4 | COC1=CC(=C2C(=O)N(COC/3=C/C(=O)N4\C=C/C=C(OCCN5CCCCC5)\C4=N3)[S+]([O-])(=O)C2=C1)C(C)C |  |  |  |  |  |  |  |  |  |  |  | 121 | 123 | 127 | 134 | 132 | 127 | 129 | 140 | 141 | 140 | 127 |  |  |  |  |  |  |  |  |  |  | 
5 | CNC(=O)c1cc(Oc2ccc(NC(=O)Nc3ccc(Cl)c(C(F)(F)F)c3)c(F)c2)ccn1 | 81.7 | 96.4 | 112 | 107 | 105 | 104 | 109 | 105 | 73.6 | 77.1 | 70.6 | 86.5 | 103 | 94.8 | 108 | 97.1 | 94.3 | 95.6 | 86.2 | 85.4 | 83.4 | 69.7 | 88 | 94.8 | 89.8 | 92.4 | 98.5 | 109 | 104 | 97.9 | 80.3 | 82.2 | 73.6
6 | COc1cc([C@@H]2c3cc4c(cc3[C@H](O)[C@H]3COC(=O)[C@H]23)OCO4)cc(OC)c1OC | 82.2 | 54.7 | 43.6 | 37.9 | 24.6 | 30.1 | 33.9 | 38.5 | 29.4 | 30.6 | 5.9 | 76.2 | 92.9 | 17.5 | 21.1 | 12.1 | 19.2 | 17.5 | 18.5 | 16.4 | 18.5 | 5.06 | 78.5 | 89.8 | 26.2 | 23.7 | 16.9 | 24.8 | 20.2 | 18.2 | 17.9 | 18.9 | 6.11
7 | Cc1ccc([S+](=O)([O-])NC(=O)NN2CC3CCCC3C2)cc1 (stereo unspecified) | 108 | 127 | 114 | 104 | 134 | 113 | 96.6 | 104 | 111 | 53.4 | 30.3 | 98 | 104 | 105 | 104 | 106 | 99.5 | 113 | 102 | 108 | 55.6 | 24.1 | 96.4 | 118 | 101 | 105 | 106 | 110 | 103 | 106 | 110 | 57.3 | 36
8 | Cc1cccc(Nc2nc(N[C@@H]3CCCC[C@@H]3N)ncc2C(N)=O)c1 | 119 | 109 | 119 | 115 | 115 | 126 | 110 | 80.9 | 77.4 | 85.5 | 83 | 96.1 | 106 | 114 | 117 | 129 | 109 | 113 | 99.1 | 58.7 | 56 | 51.5 | 101 | 99.2 | 109 | 107 | 119 | 115 | 108 | 82.4 | 55.5 | 58.6 | 56.8
9 | CN1CCC(=C2c3ccccc3CCc3sccc32)CC1 | 88.8 | 107 | 111 | 101 | 126 | 118 | 103 | 104 | 121 | 103 | 44.5 | 106 | 109 | 104 | 106 | 125 | 105 | 114 | 107 | 102 | 108 | 109 | 100 | 108 | 113 | 112 | 112 | 110 | 116 | 108 | 106 | 106 | 65.7
10 | OCCN1CCN(CCCN2c3ccccc3Sc3ccc(C(F)(F)F)cc32)CC1 | 123 | 121 | 107 | 122 | 111 | 106 | 98.8 | 122 | 73.2 | 43 | 27.7 | 104 | 104 | 100 | 121 | 97.5 | 110 | 112 | 105 | 104 | 25.7 | 21.3 | 91.6 | 102 | 108 | 105 | 105 | 109 | 110 | 97.3 | 109 | 93.9 | 24.8
11 | O=C(Nc1ccncc1)C(=O)c1cn(Cc2ccc(Cl)cc2)c2ccccc12 | 106 | 110 | 116 | 105 | 77.9 | 38.1 | 34 | 32.7 | 36.2 | 60.6 | 61.7 | 95.5 | 98.1 | 89.3 | 89.2 | 100 | 46.2 | 26.3 | 22.6 | 53.7 | 44.1 | 61.9 | 88.2 | 91.2 | 116 | 106 | 80.4 | 45.4 | 28.3 | 34.7 | 45.3 | 39.7 | 49.4
12 | Cc1ccc(C)c(OCCCC(C)(C)C(=O)O)c1 | 92.3 | 84.2 | 93 | 95.6 | 89.9 | 102 | 105 | 88.4 | 98.9 | 104 | 98.3 | 78.1 | 93.7 | 101 | 94.1 | 85.5 | 105 | 99.4 | 88.7 | 92.1 | 96.5 | 92.9 | 76.5 | 92 | 88.9 | 94.1 | 96.1 | 103 | 101 | 81.3 | 88.3 | 106 | 96.2
13 | Cc1ccnc(N[S+](=O)([O-])c2ccc(NC(=O)Nc3ccc([S+](=O)([O-])Nc4nccc(C)n4)cc3)cc2)n1 | 100 | 99.6 | 99.3 | 101 | 107 | 20.8 | 37.1 | 7.33 | 6.39 | 4.89 | 2.2 | 97.6 | 83.9 | 83.5 | 90.1 | 86.6 | 36 | 53.1 | 7.07 | 5.88 | 4.91 | 2.42 | 79.3 | 77.8 | 88 | 85.2 | 86.5 | 46.8 | 56 | 6.77 | 5.66 | 4.24 | 2.51
14 | Clc1ccc(C(Cn2ccnc2)OCc2ccc(Sc3ccccc3)cc2)c(Cl)c1 (stereo unspecified) | 126 | 101 | 124 | 120 | 146 | 109 | 126 | 107 | 109 | 98.8 | 104 | 99.2 | 108 | 106 | 111 | 111 | 125 | 104 | 103 | 118 | 70.9 | 63.8 | 111 | 123 | 116 | 112 | 116 | 125 | 134 | 104 | 124 | 88.9 | 59.8
15 | O=C(Nc1cccc2c(=O)cc(-c3nnn[nH]3)oc12)c1ccc(OCCCCc2ccccc2)cc1 | 75.4 | 80.8 | 104 | 107 | 100 | 110 | 94.1 | 102 | 95 | 83.9 | 8.37 | 73.4 | 81.2 | 85.2 | 84.6 | 84.4 | 93.7 | 90.1 | 88.6 | 79 | 81.5 | 10.5 | 82.8 | 95.1 | 91.7 | 97.5 | 94.1 | 88.9 | 94.4 | 83.3 | 80.3 | 73.7 | 22.8
16 | Clc1ccc(C(Cn2ccnc2)OCc2ccsc2Cl)c(Cl)c1 (stereo unspecified) | 102 | 127 | 114 | 116 | 103 | 98.8 | 108 | 113 | 134 | 117 | 80.6 | 89.7 | 106 | 119 | 102 | 110 | 102 | 119 | 105 | 96.6 | 111 | 94.2 | 88 | 113 | 112 | 129 | 99 | 122 | 118 | 113 | 96.3 | 100 | 73.5
